Among the data in ChEMBL document CHEMBL5291721, “A preclinical secondary pharmacology resource illuminates target-adverse drug reaction associations of marketed drugs” (Nat Commun, 2023) are AC50 values, retold here.

Bounds are passed on as bounds.

Test [1] concerns the target T1, 5-hydroxytryptamine receptor 1A (Homo sapiens, UniProt P08908).
T1 sequence (P08908 whole entry): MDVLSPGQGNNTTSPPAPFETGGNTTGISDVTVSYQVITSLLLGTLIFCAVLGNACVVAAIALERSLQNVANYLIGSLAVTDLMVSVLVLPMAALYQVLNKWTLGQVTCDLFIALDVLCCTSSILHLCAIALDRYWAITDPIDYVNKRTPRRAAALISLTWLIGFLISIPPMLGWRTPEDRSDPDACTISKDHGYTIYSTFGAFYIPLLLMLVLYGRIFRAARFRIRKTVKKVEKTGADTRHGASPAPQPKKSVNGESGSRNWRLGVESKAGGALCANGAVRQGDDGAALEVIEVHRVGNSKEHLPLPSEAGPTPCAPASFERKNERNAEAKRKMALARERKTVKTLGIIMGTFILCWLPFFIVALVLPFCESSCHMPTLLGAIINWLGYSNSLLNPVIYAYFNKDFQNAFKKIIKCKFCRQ
It counts as functional, cell-based.

For test [2], the target named is T2, Alpha-1A adrenergic receptor (Homo sapiens, UniProt P35348).
T2 sequence (P35348 whole entry): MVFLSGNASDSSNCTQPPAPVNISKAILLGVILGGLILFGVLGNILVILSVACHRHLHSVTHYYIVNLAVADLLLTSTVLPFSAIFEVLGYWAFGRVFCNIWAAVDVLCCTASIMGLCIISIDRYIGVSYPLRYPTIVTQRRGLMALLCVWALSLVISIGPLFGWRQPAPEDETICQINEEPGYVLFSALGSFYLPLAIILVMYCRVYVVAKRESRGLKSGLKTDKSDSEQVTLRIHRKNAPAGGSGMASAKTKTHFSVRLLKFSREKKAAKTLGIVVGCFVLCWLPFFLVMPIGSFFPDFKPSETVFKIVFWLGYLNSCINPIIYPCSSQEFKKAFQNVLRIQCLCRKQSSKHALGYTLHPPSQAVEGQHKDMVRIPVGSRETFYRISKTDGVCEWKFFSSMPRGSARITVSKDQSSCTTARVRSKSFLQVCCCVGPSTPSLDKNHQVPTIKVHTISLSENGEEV
It counts as functional, cell-based.

Test [3] has as its target Cannabinoid receptor 1 (Homo sapiens, UniProt P21554). It counts as functional, cell-based.
In test [4] the target is T3, Muscarinic acetylcholine receptor M2 (Homo sapiens, UniProt P08172).
T3 sequence (P08172 whole entry): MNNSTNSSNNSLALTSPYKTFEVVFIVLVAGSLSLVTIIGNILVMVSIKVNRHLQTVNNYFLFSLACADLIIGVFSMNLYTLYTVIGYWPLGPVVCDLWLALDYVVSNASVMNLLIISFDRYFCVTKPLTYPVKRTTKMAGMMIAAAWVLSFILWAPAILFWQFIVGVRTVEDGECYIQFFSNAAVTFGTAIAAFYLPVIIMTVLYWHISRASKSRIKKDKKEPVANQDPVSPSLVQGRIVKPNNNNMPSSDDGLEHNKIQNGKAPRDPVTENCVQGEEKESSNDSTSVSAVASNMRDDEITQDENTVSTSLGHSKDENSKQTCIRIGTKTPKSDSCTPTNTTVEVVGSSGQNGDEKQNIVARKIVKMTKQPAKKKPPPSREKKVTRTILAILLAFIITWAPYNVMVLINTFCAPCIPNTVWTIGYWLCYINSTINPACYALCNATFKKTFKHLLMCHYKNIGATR
In kind it is functional, cell-based.

The target of test [5] is T2, Alpha-1A adrenergic receptor. It counts as functional, cell-based. The source holds these as a separate data set.
Test [6] has as its target Muscarinic acetylcholine receptor M3 (Homo sapiens, UniProt P20309).
For test [7], the target named is T4, Alpha-2B adrenergic receptor (Homo sapiens, UniProt P18089).
T4 sequence (P18089 whole entry): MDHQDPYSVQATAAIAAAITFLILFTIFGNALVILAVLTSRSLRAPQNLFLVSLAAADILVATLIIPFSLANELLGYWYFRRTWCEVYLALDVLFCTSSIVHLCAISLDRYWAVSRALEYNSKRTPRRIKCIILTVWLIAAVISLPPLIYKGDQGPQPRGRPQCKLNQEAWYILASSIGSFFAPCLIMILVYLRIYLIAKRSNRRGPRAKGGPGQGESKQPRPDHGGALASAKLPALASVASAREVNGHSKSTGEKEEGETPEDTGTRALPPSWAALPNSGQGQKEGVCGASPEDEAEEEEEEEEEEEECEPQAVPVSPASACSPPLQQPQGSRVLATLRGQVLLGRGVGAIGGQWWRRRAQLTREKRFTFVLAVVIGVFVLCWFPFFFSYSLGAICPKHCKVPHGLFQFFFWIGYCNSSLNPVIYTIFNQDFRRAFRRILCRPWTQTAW

The target of test [8] is Beta-2 adrenergic receptor (Homo sapiens, UniProt P07550). In kind it is functional, cell-based.
The target of test [9] is Acetylcholinesterase (Homo sapiens, UniProt P22303). In kind it is functional.
Test [10] has as its target T5, Thromboxane A2 receptor (Homo sapiens, UniProt P21731).
T5 sequence (P21731 whole entry): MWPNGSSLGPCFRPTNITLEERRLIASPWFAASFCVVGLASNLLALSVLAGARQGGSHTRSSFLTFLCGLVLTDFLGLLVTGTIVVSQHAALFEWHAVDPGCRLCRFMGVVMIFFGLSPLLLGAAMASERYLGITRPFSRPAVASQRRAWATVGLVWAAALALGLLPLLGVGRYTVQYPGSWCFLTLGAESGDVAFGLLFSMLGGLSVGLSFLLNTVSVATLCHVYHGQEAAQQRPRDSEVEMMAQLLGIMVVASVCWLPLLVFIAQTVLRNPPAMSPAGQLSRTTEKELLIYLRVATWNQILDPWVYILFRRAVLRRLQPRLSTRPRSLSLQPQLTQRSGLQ
In kind it is functional, cell-based.

In test [11] the target is Gamma-aminobutyric acid receptor subunit alpha-1 (Rattus norvegicus, UniProt P62813).
The target in test [12] is T5, Thromboxane A2 receptor.
Note: assay procedure not described here.

Chain of Beta-2 adrenergic receptor (P07550 whole entry): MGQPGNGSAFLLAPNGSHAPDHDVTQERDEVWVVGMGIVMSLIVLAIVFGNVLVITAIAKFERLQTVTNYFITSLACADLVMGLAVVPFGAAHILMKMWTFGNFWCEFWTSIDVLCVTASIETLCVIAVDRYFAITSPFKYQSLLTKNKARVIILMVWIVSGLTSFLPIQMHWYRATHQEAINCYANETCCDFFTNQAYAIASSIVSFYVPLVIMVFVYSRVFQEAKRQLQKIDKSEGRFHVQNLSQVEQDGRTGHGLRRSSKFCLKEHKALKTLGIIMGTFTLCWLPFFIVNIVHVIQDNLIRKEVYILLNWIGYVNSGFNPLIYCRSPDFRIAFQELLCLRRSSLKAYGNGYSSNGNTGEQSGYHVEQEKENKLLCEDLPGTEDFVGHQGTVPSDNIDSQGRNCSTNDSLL
Chain of Cannabinoid receptor 1 (P21554 whole entry): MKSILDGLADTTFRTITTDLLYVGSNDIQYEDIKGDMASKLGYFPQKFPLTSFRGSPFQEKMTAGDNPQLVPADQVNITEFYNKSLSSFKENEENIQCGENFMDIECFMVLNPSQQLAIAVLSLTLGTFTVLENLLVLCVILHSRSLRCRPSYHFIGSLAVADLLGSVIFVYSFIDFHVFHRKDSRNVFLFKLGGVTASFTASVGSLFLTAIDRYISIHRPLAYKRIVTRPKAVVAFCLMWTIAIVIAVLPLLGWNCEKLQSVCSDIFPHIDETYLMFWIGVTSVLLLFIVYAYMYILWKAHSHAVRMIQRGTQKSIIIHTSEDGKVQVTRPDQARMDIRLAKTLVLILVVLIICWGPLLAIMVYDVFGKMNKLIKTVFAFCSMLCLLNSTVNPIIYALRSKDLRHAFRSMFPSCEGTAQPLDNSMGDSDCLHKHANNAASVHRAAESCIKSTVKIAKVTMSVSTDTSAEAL
Chain of Muscarinic acetylcholine receptor M3 (P20309 whole entry): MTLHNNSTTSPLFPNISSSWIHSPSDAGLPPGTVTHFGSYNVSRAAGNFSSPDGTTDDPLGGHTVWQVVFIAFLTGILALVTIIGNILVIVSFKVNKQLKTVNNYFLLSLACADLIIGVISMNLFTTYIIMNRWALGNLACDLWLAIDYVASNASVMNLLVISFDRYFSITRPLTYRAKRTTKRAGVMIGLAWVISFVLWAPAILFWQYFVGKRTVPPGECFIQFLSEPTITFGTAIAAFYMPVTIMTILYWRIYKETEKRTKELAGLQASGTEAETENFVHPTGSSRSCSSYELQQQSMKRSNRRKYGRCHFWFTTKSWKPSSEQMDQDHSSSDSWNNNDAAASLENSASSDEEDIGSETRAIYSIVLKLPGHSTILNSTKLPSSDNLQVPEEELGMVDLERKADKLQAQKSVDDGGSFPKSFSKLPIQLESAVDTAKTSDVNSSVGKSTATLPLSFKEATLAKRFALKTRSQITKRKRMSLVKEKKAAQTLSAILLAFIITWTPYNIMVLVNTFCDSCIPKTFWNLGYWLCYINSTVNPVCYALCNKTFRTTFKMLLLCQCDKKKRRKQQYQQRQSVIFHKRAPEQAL
Chain of Gamma-aminobutyric acid receptor subunit alpha-1 (P62813 whole entry): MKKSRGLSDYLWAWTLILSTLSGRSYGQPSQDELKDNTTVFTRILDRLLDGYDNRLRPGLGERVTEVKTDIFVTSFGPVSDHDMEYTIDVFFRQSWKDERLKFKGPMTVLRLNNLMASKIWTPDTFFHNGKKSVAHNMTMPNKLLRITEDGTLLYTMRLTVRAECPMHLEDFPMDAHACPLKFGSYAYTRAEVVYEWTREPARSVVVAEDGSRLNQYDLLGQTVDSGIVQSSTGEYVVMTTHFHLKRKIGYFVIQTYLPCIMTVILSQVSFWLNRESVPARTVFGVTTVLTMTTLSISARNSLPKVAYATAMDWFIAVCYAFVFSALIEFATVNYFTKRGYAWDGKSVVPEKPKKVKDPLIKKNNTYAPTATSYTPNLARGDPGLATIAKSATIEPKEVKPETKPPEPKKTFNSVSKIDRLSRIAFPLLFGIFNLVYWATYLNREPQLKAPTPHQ
Chain of Acetylcholinesterase (P22303 whole entry): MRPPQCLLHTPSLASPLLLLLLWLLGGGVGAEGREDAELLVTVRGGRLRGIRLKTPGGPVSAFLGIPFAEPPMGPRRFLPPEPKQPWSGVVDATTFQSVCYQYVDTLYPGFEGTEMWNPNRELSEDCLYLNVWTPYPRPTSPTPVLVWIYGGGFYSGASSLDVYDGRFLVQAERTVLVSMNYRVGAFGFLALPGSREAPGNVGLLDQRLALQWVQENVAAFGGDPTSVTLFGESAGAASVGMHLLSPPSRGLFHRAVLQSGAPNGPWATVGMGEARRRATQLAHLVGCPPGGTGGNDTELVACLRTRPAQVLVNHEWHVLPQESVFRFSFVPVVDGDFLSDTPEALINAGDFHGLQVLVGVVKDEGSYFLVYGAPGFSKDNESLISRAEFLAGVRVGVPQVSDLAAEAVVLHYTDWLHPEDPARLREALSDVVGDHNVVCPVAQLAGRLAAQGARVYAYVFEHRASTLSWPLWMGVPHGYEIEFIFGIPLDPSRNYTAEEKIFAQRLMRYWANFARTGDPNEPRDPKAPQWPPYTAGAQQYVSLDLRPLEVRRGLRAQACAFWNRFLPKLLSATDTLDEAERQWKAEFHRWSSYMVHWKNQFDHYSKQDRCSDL

Consider `CN(C)CCOC(c1ccc(Cl)cc1)c1ccccn1` (centres undefined) [CARBINOXAMINE], for which the AC50 (in general, the concentration at which the activity in the assay is half-maximal) is > 30 µM in test [1]; > 30 µM in [2]; > 30 µM in [3]; 26 µM in [4]; > 30 µM in test [5]; > 30 µM in test [6]. Besides, the AC50 in [7] is 19 µM; in test [8] it was > 30 µM.
Turning to `CC(C)(CO)c1cc2cc(NC(=O)C3(c4ccc5c(c4)OC(F)(F)O5)CC3)c(F)cc2n1C[C@@H](O)CO` [TEZACAFTOR], the AC50 in test [1] is > 10 µM; in test [2] it was > 10 µM; in test [3], > 30 µM; in test [4] it was > 30 µM; in test [5] it was > 30 µM; in test [6] it was > 30 µM. Also, the AC50 in test [7] and in test [8] was > 30 µM throughout.
In the case of `CCOCC(O)COc1ccc(NC(=O)CC[S+](C)C)cc1` (centres undefined), the AC50 in [1], in test [2], in [3], in test [4], in test [5] and in [6] was > 30 µM in each case. Further, the half-maximal activity concentration (AC50) in [7] and in test [8] was > 30 µM throughout.
In the case of `CO[C@@H]1[C@@H](OC(N)=O)[C@@H](O)[C@H](Oc2ccc3c(O)c(NC(=O)c4ccc(O)c(CC=C(C)C)c4)c(=O)oc3c2C)OC1(C)C` [NOVOBIOCIN], the AC50 in test [1], in test [2], in test [3], in test [4], in [5] and in test [6] was > 30 µM each time. In addition, the AC50 in test [7] and in [8] was > 30 µM throughout.
As for `COc1cc2c(cc1OC)C1CC(=O)C(CC(C)C)CN1CC2` (centres undefined) [TETRABENAZINE], the AC50 in [1], in test [2], in test [3], in test [4], in test [5] and in test [6] was > 30 µM in each case. Further, the AC50 in test [7] and in test [8] was > 30 µM in each case.
For the molecule `C[C@@H](O)[C@H]1C(=O)N2C(C(=O)O)=C(SCCN=CN)C[C@H]12` [IMIPENEM ANHYDROUS], the concentration at half-maximal activity (AC50) in test [1], in test [2], in test [3], in test [4], in [5] and in test [6] was > 300 µM in each case. In addition, the AC50 in test [7] and in [8] was > 300 µM in each case.
As to `CN1CC2c3ccccc3Oc3ccc(Cl)cc3C2C1` (centres undefined) [ASENAPINE], the AC50 in test [1] is 0.0097 µM; in test [2] it was 0.0014 µM; in test [3], > 30 µM; in [4] it was > 30 µM; in test [5], > 30 µM; in test [6] it was > 30 µM. The AC50 in [8] was > 30 µM.
For the molecule `c1cnc2cc3c(cc2n1)[C@@H]1CNC[C@H]3C1` [VARENICLINE], the AC50 in [1], in [2], in [3], in test [4], in [5] and in test [6] was > 30 µM each time. The half-maximal activity concentration (AC50) in test [7] and in test [8] was > 30 µM each time.
In the case of `Cn1cnc2c(F)c(Nc3ccc(Br)cc3F)c(C(=O)NOCCO)cc21` [BINIMETINIB], the AC50 in test [1], in test [2], in [3], in test [4], in [5] and in test [6] was > 30 µM in each case. Moreover, the AC50 in test [7] and in test [8] was > 30 µM in each case.
Consider `N[C@@H](Cc1cc(I)c(Oc2cc(I)c(O)c(I)c2)c(I)c1)C(=O)O` [LEVOTHYROXINE], for which the AC50 in [1], in test [2], in test [3], in [4], in test [5] and in [6] was > 30 µM in each case. Moreover, the concentration at half-maximal activity (AC50) in [7] and in test [8] was > 30 µM in each case.
Turning to `CS(=O)(=O)Nc1ccc([N+](=O)[O-])cc1Oc1ccccc1` [NIMESULIDE], the AC50 in [9], in test [10], in test [2], in [3], in [4] and in test [5] was > 30 µM throughout. Further, the AC50 is > 30 µM in [11], 27 µM in [12] and > 30 µM in test [8].
Turning to `CN(C)CCc1c[nH]c2ccc(CS(=O)(=O)N3CCCC3)cc12` [ALMOTRIPTAN], the AC50 was > 30 µM in test [3]; > 30 µM in test [4]; > 30 µM in test [5]; > 30 µM in test [11]; > 30 µM in test [6]; 30 µM in [7]. In test [8], the concentration at half-maximal activity (AC50) is > 30 µM.
In the case of `Nc1c2c(nc3ccccc13)CCCC2O` (centres undefined) [VELNACRINE], the half-maximal activity concentration (AC50) in test [1], in test [2], in [3], in [4], in [5] and in [6] was > 30 µM throughout. In addition, the AC50 in test [7] and in test [8] was > 30 µM each time.
As to `O=C(O)[C@H]1/C(=C/CO)O[C@@H]2CC(=O)N21` [CLAVULANIC ACID], the AC50 in test [1], in [2], in test [3], in test [4], in [5] and in test [6] was > 30 µM in each case. The AC50 in test [7] and in [8] was > 30 µM each time.
With `CCOC(=O)Nc1ccc(NCc2ccc(F)cc2)nc1N` [FLUPIRTINE], the AC50 in [1] was 22 µM; in test [3], > 30 µM; in [4] it was > 30 µM; in [11], > 30 µM; in [6] it was > 30 µM; in test [7], > 30 µM. Besides, the AC50 in [12] was 29 µM; in [8], > 30 µM.
